Series [1] deals with BaF3. Description: Anti-proliferative activity against mouse BaF3 cells expressing wild-type EGFR incubated for 3 days by Cell Titer Glo 2.0 assay. Format: functional. The settings on record: BaF3, 72 h, time 3 day. For orientation: In ATP-based viability assays light output follows the ATP content of the culture.
Series [2] concerns BaF3. Description: Anti-proliferative activity against mouse BaF3 cells expressing EGFR […]/T790M/C797S mutant incubated for 3 days by Cell Titer Glo 2.0 assay. The format is functional. The settings on record: BaF3, 72 h, time 3 day.
Series [3] is described as follows: Lipophilicity, logD of compound. Format: physicochemical. The conditions noted are these: octanol/water.
A short description of series [4]: Plasma protein binding in human. Format: ADME, cell-free. The conditions noted are these: read-out: PPB.
A short description of series [5]: Solubility of compound at pH 1.2. The format is physicochemical. The settings on record: buffer.
Series [6] is described as follows: Plasma protein binding in mouse. Format: ADME, cell-free. The settings on record: read-out: PPB.
Series [7] is described as follows: Metabolic stability in human liver microsomes assessed as compound remaining. The format is ADME, Microsome. For orientation: Microsomes from liver hold many membrane-bound enzymes, among them those of drug oxidation.
Series [8] is described as follows: Apparent permeability in MDCK cells. The conditions noted are these: dog. Format: ADME, cell-based, Canis lupus familiaris.
For series [9], the system named is BaF3. Description: Anti-proliferative activity against mouse BaF3 cells expressing EGFR L858R/T790M/C797S mutant incubated for 3 days by Cell Titer Glo 2.0 assay. The format is functional. The settings on record: BaF3, 72 h, time 3 day.
Series [10] is described as follows: Metabolic stability in mouse liver microsomes assessed as compound remaining. Format: ADME, Microsome.
The nature of series [11]: Solubility of compound at pH 6.8. Format: physicochemical. The settings on record: buffer.
The test system of series [12] is BaF3. Description: Antitumor activity against mouse BaF3 cells expressing EGFR […]/T790M/[…] mutant allografted in Balb/c nude mouse at 12.5 mg/kg, po bid for 5 days consecutively relative to control. Format: functional. The settings on record: BaF3, 120 h, time 5 day, read-out: TGI.
The subject of series [13] is BaF3. Description: Antitumor activity against mouse BaF3 cells expressing EGFR […]/T790M/[…] mutant allografted in Balb/c nude mouse at 100 mg/kg, po qd for 5 days consecutively relative to control. The format is functional. The settings on record: BaF3, 120 h, time 5 day, read-out: TGI.
Series [14] relates to BaF3. Description: Antitumor activity against mouse BaF3 cells expressing EGFR […]/T790M/[…] mutant allografted in Balb/c nude mouse at 25 mg/kg, po qd for 5 days consecutively relative to control. Format: functional. The settings on record: BaF3, 120 h, time 5 day, read-out: TGI.
In series [15] the test system is BaF3. Description: Antitumor activity against mouse BaF3 cells expressing EGFR […]/T790M/[…] mutant allografted in Balb/c nude mouse administered orally once daily for 5 days consecutively. Format: functional, cell-based. The conditions noted are these: dose 25-100 mg/kg, route po, time 5.0 day.
A short description of series [16]: Toxicity in Balb/c nude mouse allografted with mouse BaF3 cells expressing EGFR […]/T790M/[…] mutant assessed as body weight loss at 12.5 to 25 mg/kg, po bid for 5 days consecutively. The settings on record: in vivo, 120 h, dose 12.5-25 mg/kg, time 5 day. The format is organism-based.
A short description of series [17]: In vivo inhibition of phosphorylation of EGFR […]/T790M/[…] mutant at Y1068 in mouse BaF3 cells allografted in Balb/c nude mouse at 12.5 to 100 mg/kg, po measured after 6 hrs by Western blot analysis relative to control. The format is functional. The settings on record: dose 12.5-100 mg/kg.
A short description of series [18]: Toxicity in Balb/c nude mouse allografted with mouse BaF3 cells expressing EGFR […]/T790M/[…] mutant assessed as body weight loss at 25 to 100 mg/kg, po qd for 5 days consecutively. The format is organism-based. The conditions noted are these: in vivo, 120 h, dose 25-100 mg/kg, time 5 day.
The test system of series [19] is BaF3. Description: Antitumor activity against mouse BaF3 cells expressing EGFR […]/T790M/[…] mutant allografted in Balb/c nude mouse administered orally twice daily for 5 days consecutively. The conditions noted are these: dose 12.5-25 mg/kg, route po, time 5.0 day. Format: functional, cell-based.
A short description of series [20]: Toxicity in Balb/c nude mouse allografted with mouse BaF3 cells expressing EGFR […]/T790M/[…] mutant assessed as signs of toxicity at 12.5 to 25 mg/kg, po bid for 5 days consecutively. The conditions noted are these: in vivo, 120 h, dose 12.5-25 mg/kg, time 5 day. Format: organism-based.
Series [21] concerns BaF3. Nature of the series: Antitumor activity against mouse BaF3 cells expressing EGFR […]/T790M/[…] mutant allografted in Balb/c nude mouse at 25 mg/kg, po bid for 5 days consecutively relative to control. The format is functional. The settings on record: BaF3, 120 h, time 5 day, read-out: TGI.
Series [22] is described as follows: Toxicity in Balb/c nude mouse allografted with mouse BaF3 cells expressing EGFR […]/T790M/[…] mutant assessed as signs of toxicity at 25 to 100 mg/kg, po qd for 5 days consecutively. The conditions noted are these: in vivo, 120 h, dose 25-100 mg/kg, time 5 day. Format: organism-based.

≈ marks a conversion by molar mass, not a printed value.

The source of these data is ChEMBL document CHEMBL6127025, “Discovery of a potent, selective, and orally available EGFR C797S mutant inhibitor (DS06652923) with in vivo antitumor activity” (Bioorg Med Chem, 2024).

The GI50 is the concentration at which growth is held to half of that of the control. A high value points to lower sensitivity of the cells. What is called logD is lipophilicity at a set pH, counting ionised and neutral species. As a reminder, the solubility is the dissolved amount per volume that the medium holds. Read a low solubility as little dissolved substance. The Papp is a coefficient for how fast a substance crosses the barrier.

Regarding `Cc1nn([C@H]2C[C@H](C)N(C)C2)cc1-c1cnc(Nc2ccnc(-c3cnn(S(=O)(=O)C4CC4)c3)n2)cc1OC(C)C`, the GI50 in series [1] amounted to 2290 nM; in [2] it was 168 nM.

In the case of `CC(C)Oc1cc(Nc2ccnc(-c3cnn(S(=O)(=O)C4CC4)c3)n2)ncc1-c1cnn(-c2ccncc2)c1`, the GI50 is > 10000 nM in [1] and 601 nM in series [2].

Turning to `CC(C)Oc1cc(Nc2ccnc(-c3cnn(S(=O)(=O)C4CC4)c3)n2)ncc1-c1cnn(C2CCN(C)CC2)c1`, the results for the concentration for 50% growth inhibition (GI50) in [1] and in [2] were 203 nM and 9.6 nM, respectively.

`COc1nn([C@H]2C[C@H](C)N(C)C2)cc1-c1cnc(Nc2ccnc(-c3cnn(S(=O)(=O)C4CC4)c3)n2)cc1OC(C)C` returned a logD in series [3] of 5.4. Also, the fraction unbound in series [4] and in series [6] was < 0.002 each time. The solubility in series [5] was > 1100 µg/mL. Further, the results for the Stability in series [7] and in [10] were 1% and 20%, respectively. Also, in [8], the Papp amounted to 5.2 ×10⁻⁶ cm/s. Besides, the GI50 stood at 23 nM in series [9], 574 nM in series [1] and 12 nM in series [2].

With `CC(C)Oc1cc(Nc2ccnc(-c3cnn(S(=O)(=O)C4CC4)c3)n2)ncc1-c1cnn([C@@H]2CCN(C)C2)c1`, the GI50 came out at 318 nM in series [1] and 21 nM in [2].

Take `COc1nn(C2CCN(C)CC2)cc1-c1cnc(Nc2ccnc(-c3cnn(S(=O)(=O)C4CC4)c3)n2)cc1OC(C)C`: the logD in [3] is 4.4. In addition, the fraction unbound in [4] and in series [6] was < 0.002 throughout. Moreover, the results for the solubility in series [5] and in series [11] were > 1100 µg/mL and 15 µg/mL (≈ 25.3 µM), respectively. In addition, the Stability in series [7] was 24%; in series [10] it was 48%. The Papp in [8] is 3.1 ×10⁻⁶ cm/s. Also, the 50% growth inhibitory concentration (GI50) in series [9] stood at 18 nM; in series [1] it was 565 nM; in series [2], 6.5 nM.

With `CC(C)Oc1cc(Nc2ccnc(-c3cnn(S(=O)(=O)C4CC4)c3)n2)ncc1-c1cnn(C)c1`, the GI50 in [1] was found to be 879 nM; in [2], 61 nM.

On to `CC(C)Oc1cc(Nc2ccnc(-c3cnn(S(=O)(=O)C4CC4)c3)n2)ncc1-c1cn(C2CCN(C)CC2)nc1OC(F)F`, for which the logD in series [3] stood at 4.6. The fraction unbound in [4] and in series [6] was < 0.002 throughout. The inhibition in vivo at 12.5 mg/kg in series [12] came to 88%. The inhibition in vivo at 100 mg/kg in series [13] turned out to be 127%. Besides, the inhibition in vivo at 25 mg/kg worked out at 111% in [14] and 119% in series [21]. For the same compound, the Activity result in [15] was “Dose-Dependent Effect”; in [16] it was “Non-Toxic”; in [18], “Non-Toxic”; in series [19] it was “Dose-Dependent Effect”; in series [20], “Non-Toxic”; in series [22] it was “Non-Toxic”. For the same compound, the concentration in solution in [5] (solubility) came to 1200 µg/mL (≈ 1910 µM). Besides, the “inhibition (INH)” value in series [17] was determined as 100%. Moreover, the Stability in [7] is reported as 18%; in series [10], 55%. Besides, the Papp in [8] was determined as 9 ×10⁻⁶ cm/s. The GI50 in series [9] was 13 nM; in series [1], 760 nM; in series [2], 9.4 nM.

Take `CC(C)Oc1cc(Nc2ccnc(-c3cnn(S(=O)(=O)C4CC4)c3)n2)ncc1-c1cn([C@H]2C[C@H](C)N(C)C2)nc1F`: the GI50 in series [1] came out at 856 nM; in series [2], 43 nM.

With `CC(C)Oc1cc(Nc2ccnc(-c3cnn(S(=O)(=O)C4CC4)c3)n2)ncc1-c1cnn(C2CCOCC2)c1`, the figures for the concentration for 50% growth inhibition (GI50) in [1] and in series [2] were 353 nM and 46 nM, respectively.

Consider `CC(C)Oc1cc(Nc2ccnc(-c3cnn(S(=O)(=O)C4CC4)c3)n2)ncc1-c1cnn([C@H]2CCN(C)C2)c1`, for which the GI50 was found to be 463 nM in series [1] and 19 nM in series [2].

With `CC(C)Oc1cc(Nc2ccnc(-c3cnn(S(=O)(=O)C4CC4)c3)n2)ncc1-c1cnn([C@H]2C[C@H](C)N(C)C2)c1`, the GI50 in series [1] is 387 nM; in series [2] it was 26 nM.
